# Measurements as given in patent US11147272B2, “Pyridone compounds and agricultural and horticultural fungicides comprising the same as active ingredients” (MITSUI CHEMICALS AGRO, INC., priority 2017, dated 2021).
# Key:
# [1] = system: Blumeria graminis f. sp. hordei; experiment: Test Example D: Powdery mildew on barley; details: for Test D control value class: class of control value; for pest or weed control at 250 µg/mL: Blumeria graminis, in Hordeum vulgare, topical, read-out: Test D control value
# Puccinia recondita = experiment: Test Example E: Brown rust on wheat; type: in vivo; details: for Test E control value class: class of control value; for pest or weed control at 250 µg/mL: Puccinia recondita, topical, read-out: Test E control value
# Plasmopara viticola = experiment: Test Example G: Downy mildew on vine; details: for Test G control value class: Downy mildew on vine (Neomuscat), 2.5 ml/pot, assessed 7 to 10 days after inoculation; for Test G control value: 7 to 10 days after inoculation; for pest or weed control at 250 ppm: Plasmopara viticola, topical, 168 h, read-out: Test G control value
# Alternaia brassicicola = experiment: Test Example C: Alternaria sooty spot on cabbage; type: in vivo; details: for Test C control value class: class of control value; for pest or weed control at 250 µg/mL: Brassica oleracea, topical, read-out: Test C control value
# Text: Seeds of a test plant (cabbage variety: Shikidori) were planted and cultivated until the cotyledons extended.
# <Control Value> Control value=100{1−(n/3)}
# Magnaporthe grisea = experiment: whole plant or invertebrate; type: in vivo; details: for Test A control value class: class of control value; for pest or weed control at 250 µg/mL: Pyricularia oryzae, in Oryza sativa, read-out: Test A control value
# Botrytis cinerea = experiment: Test Example B: Gray mold on tomato; details: for Test B control value class: class of control value; for pest or weed control at 250 µg/mL: Botrytis cinerea, in Solanum lycopersicum, topical, read-out: Test B control value
# Phytophthora infestans = experiment: whole plant or invertebrate; type: in vivo; details: for Test F control value class: class of control value; for pest or weed control at 250 µg/mL: Phytophthora infestans, in Solanum lycopersicum, topical, read-out: Test F control value
# [2] = system: Colletotrichum orbiculare; experiment: Test Example H: Anthracnose on cucumber; details: for Test H control value class: Anthracnose on cucumber (Sagami Hanjiro), 2.5 ml/pot, assessed 6 to 10 days after inoculation; for Test H control value: 6 to 10 days after inoculation; for pest or weed control at 250 ppm: Colletotrichum orbiculare, in Cucumis sativus, topical, 144 h, read-out: Test H control value
# [3] = Alternaria sooty spot on cabbage
# [4] = Powdery mildew on barley, control value class
# [5] = Brown rust on wheat, control value class
# [6] = Downy mildew on vine, 250 ppm spray
# [7] = Alternaria sooty spot on cabbage, control value class
# [8] = Blast on rice, control value class
# [9] = Gray mold on tomato, control value class
# [10] = Late blight on tomato, control value class
# [11] = Anthracnose on cucumber, 250 ppm spray
# [12] = 250 ppm drug solution sprayed on test plant
# [13] = 250 ppm drug solution sprayed (2.5 ml/pot), grape Neomuscat
# [14] = 250 ppm drug solution sprayed (2.5 ml/pot), cucumber Sagami Hanjiro
structure (smiles),measurement,setting,value
CCn1c(-c2c(F)cc(OC)cc2F)c(C(C)(C)C)cc(Cl)c1=O [compound 74],Test D control value class,[1]; Powdery mildew on barley,L (50% or less control value)
same,Test E control value class,Puccinia recondita; Brown rust on wheat,H (more than 50% control value)
same,Test G control value class,Plasmopara viticola; 250 ppm spray,H (more than 50% control value)
same,Test C control value class,Alternaia brassicicola; [3],H (more than 50% control value)
same,Test A control value class,Magnaporthe grisea; Blast on rice,H (more than 50% control value)
same,Test B control value class,Botrytis cinerea; Gray mold on tomato,H (more than 50% control value)
same,Test F control value class,Phytophthora infestans; Late blight on tomato,L (50% or less control value)
same,Test H control value class,[2]; 250 ppm spray,H (more than 50% control value)
CCn1c(-c2ccc(Cl)cc2F)c(CC(C)C)ccc1=O [compound 157],Test D control value class,[1]; Powdery mildew on barley,H (more than 50% control value)
same,Test E control value class,Puccinia recondita; Brown rust on wheat,H (more than 50% control value)
same,Test G control value class,Plasmopara viticola; 250 ppm spray,H (more than 50% control value)
same,Test C control value class,Alternaia brassicicola; [3],H (more than 50% control value)
same,Test A control value class,Magnaporthe grisea; Blast on rice,H (more than 50% control value)
same,Test B control value class,Botrytis cinerea; Gray mold on tomato,H (more than 50% control value)
same,Test F control value class,Phytophthora infestans; Late blight on tomato,L (50% or less control value)
same,Test H control value class,[2]; 250 ppm spray,L (50% or less control value)
CCn1c(-c2ccc(F)cc2Cl)c(C2CCCC2)cc(Cl)c1=O [compound 220],Test D control value,[1]; [4],H (more than 50% control value)
same,Test E control value,Puccinia recondita; [5],H (more than 50% control value)
same,Test G control value,Plasmopara viticola; [6],H (more than 50% control value)
same,Test C control value,Alternaia brassicicola; [7],H (more than 50% control value)
same,Test A control value,Magnaporthe grisea; [8],H (more than 50% control value)
same,Test B control value,Botrytis cinerea; [9],H (more than 50% control value)
same,Test F control value,Phytophthora infestans; [10],L (50% or less control value)
same,Test H control value,[2]; [11],H (more than 50% control value)
CC(C)C(C)(O)c1cc(Cl)c(=O)n(C)c1-c1c(F)cc(F)cc1F (centres unmarked) [compound 450],Test D control value,[1]; [12],H (more than 50% control value)
same,Test E control value,Puccinia recondita; [12],H (more than 50% control value)
same,Test G control value,Plasmopara viticola; [13],H (more than 50% control value)
same,Test C control value,Alternaia brassicicola; [12],H (more than 50% control value)
same,Test A control value,Magnaporthe grisea; [12],H (more than 50% control value)
same,Test B control value,Botrytis cinerea; [12],H (more than 50% control value)
same,Test F control value,Phytophthora infestans; [12],H (more than 50% control value)
same,Test H control value,[2]; [14],H (more than 50% control value)
CCCc1cc(Cl)c(=O)n(C)c1-c1ccc(OC)cc1Cl [compound 335],Test D control value,[1]; [4],H (more than 50% control value)
same,Test E control value,Puccinia recondita; [5],H (more than 50% control value)
same,Test G control value,Plasmopara viticola; [6],H (more than 50% control value)
same,Test C control value,Alternaia brassicicola; [7],H (more than 50% control value)
same,Test A control value,Magnaporthe grisea; [8],H (more than 50% control value)
same,Test B control value,Botrytis cinerea; [9],H (more than 50% control value)
same,Test F control value,Phytophthora infestans; [10],L (50% or less control value)
same,Test H control value,[2]; [11],H (more than 50% control value)
CCOC(C)(c1cc(Br)c(=O)n(CC)c1-c1c(F)cc(F)cc1F)C(C)C (centres unmarked) [compound 466],Test D control value,[1]; [12],H (more than 50% control value)
same,Test E control value,Puccinia recondita; [12],L (50% or less control value)
same,Test G control value,Plasmopara viticola; [13],L (50% or less control value)
same,Test C control value,Alternaia brassicicola; [12],H (more than 50% control value)
same,Test A control value,Magnaporthe grisea; [12],L (50% or less control value)
same,Test B control value,Botrytis cinerea; [12],L (50% or less control value)
same,Test F control value,Phytophthora infestans; [12],L (50% or less control value)
same,Test H control value,[2]; [14],L (50% or less control value)
C#CC(F)c1cc(Cl)c(=O)n(CC)c1-c1c(F)cc(F)cc1F (centres unmarked) [compound 286],Test D control value,[1]; [4],L (50% or less control value)
same,Test E control value,Puccinia recondita; [5],H (more than 50% control value)
same,Test G control value,Plasmopara viticola; [6],L (50% or less control value)
same,Test C control value,Alternaia brassicicola; [7],H (more than 50% control value)
same,Test A control value,Magnaporthe grisea; [8],L (50% or less control value)
same,Test B control value,Botrytis cinerea; [9],H (more than 50% control value)
same,Test F control value,Phytophthora infestans; [10],L (50% or less control value)
same,Test H control value,[2]; [11],H (more than 50% control value)
CCCc1cc(Cl)c(=O)n(CC)c1-c1c(F)cccc1F [compound 428],Test D control value,[1]; [12],H (more than 50% control value)
same,Test E control value,Puccinia recondita; [12],H (more than 50% control value)
same,Test G control value,Plasmopara viticola; [13],H (more than 50% control value)
same,Test C control value,Alternaia brassicicola; [12],H (more than 50% control value)
same,Test A control value,Magnaporthe grisea; [12],H (more than 50% control value)
same,Test B control value,Botrytis cinerea; [12],H (more than 50% control value)
same,Test F control value,Phytophthora infestans; [12],L (50% or less control value)
same,Test H control value,[2]; [14],H (more than 50% control value)
"CCCc1cc(Br)c(=O)n(C)c1-c1ccc(F)cc1Cl [Compound No. 333, 3-bromo-6-(2-chloro-4-fluorophenyl)-1-methyl-5-propylpyridin-2(1H)-one]",pest or weed control at 250 µg/mL,[1],< 50%
same,pest or weed control at 250 µg/mL,Puccinia recondita; [5],> 50%
same,pest or weed control at 250 ppm,Plasmopara viticola,< 50%
same,pest or weed control at 250 µg/mL,Alternaia brassicicola; [7],> 50%
same,pest or weed control at 250 µg/mL,Magnaporthe grisea,> 50%
same,pest or weed control at 250 µg/mL,Botrytis cinerea,> 50%
same,pest or weed control at 250 µg/mL,Phytophthora infestans,< 50%
same,pest or weed control at 250 ppm,[2],> 50%
CCC(C)(OC)c1cc(Cl)c(=O)n(C)c1-c1c(F)cc(F)cc1F (centres unmarked) [compound 508],Test D control value,[1]; [12],H (more than 50% control value)
same,Test E control value,Puccinia recondita; [12],H (more than 50% control value)
same,Test G control value,Plasmopara viticola; [13],H (more than 50% control value)
same,Test C control value,Alternaia brassicicola; [12],H (more than 50% control value)
same,Test A control value,Magnaporthe grisea; [12],H (more than 50% control value)
same,Test B control value,Botrytis cinerea; [12],H (more than 50% control value)
same,Test F control value,Phytophthora infestans; [12],L (50% or less control value)
same,Test H control value,[2]; [14],H (more than 50% control value)
CCCc1ccc(=S)n(CC)c1-c1ccc(F)cc1Cl [compound 331],Test D control value,[1]; [4],H (more than 50% control value)
same,Test E control value,Puccinia recondita; [5],H (more than 50% control value)
same,Test G control value,Plasmopara viticola; [6],L (50% or less control value)
same,Test C control value,Alternaia brassicicola; [7],L (50% or less control value)
same,Test A control value,Magnaporthe grisea; [8],L (50% or less control value)
same,Test B control value,Botrytis cinerea; [9],H (more than 50% control value)
same,Test F control value,Phytophthora infestans; [10],L (50% or less control value)
same,Test H control value,[2]; [11],H (more than 50% control value)
Cn1c(-c2c(F)cc(F)cc2F)c(C(C)(C)C)cc(Cl)c1=O [compound 77],Test D control value class,[1]; Powdery mildew on barley,H (more than 50% control value)
same,Test E control value class,Puccinia recondita; Brown rust on wheat,H (more than 50% control value)
same,Test G control value class,Plasmopara viticola; 250 ppm spray,L (50% or less control value)
same,Test C control value class,Alternaia brassicicola; [3],H (more than 50% control value)
same,Test A control value class,Magnaporthe grisea; Blast on rice,L (50% or less control value)
same,Test B control value class,Botrytis cinerea; Gray mold on tomato,H (more than 50% control value)
same,Test F control value class,Phytophthora infestans; Late blight on tomato,L (50% or less control value)
same,Test H control value class,[2]; 250 ppm spray,L (50% or less control value)
CCCc1cc(Br)c(=O)n(CC)c1-c1c(F)cccc1F [compound 429],Test D control value,[1]; [12],H (more than 50% control value)
same,Test E control value,Puccinia recondita; [12],H (more than 50% control value)
same,Test G control value,Plasmopara viticola; [13],H (more than 50% control value)
same,Test C control value,Alternaia brassicicola; [12],H (more than 50% control value)
same,Test A control value,Magnaporthe grisea; [12],H (more than 50% control value)
same,Test B control value,Botrytis cinerea; [12],H (more than 50% control value)
same,Test F control value,Phytophthora infestans; [12],L (50% or less control value)
same,Test H control value,[2]; [14],H (more than 50% control value)
COC(C)(c1cc(Cl)c(=O)n(C)c1-c1c(F)cc(F)cc1F)C(C)C (centres unmarked) [compound 452],Test D control value,[1]; [12],H (more than 50% control value)
same,Test E control value,Puccinia recondita; [12],H (more than 50% control value)
same,Test G control value,Plasmopara viticola; [13],H (more than 50% control value)
same,Test C control value,Alternaia brassicicola; [12],H (more than 50% control value)
same,Test A control value,Magnaporthe grisea; [12],H (more than 50% control value)
same,Test B control value,Botrytis cinerea; [12],H (more than 50% control value)
same,Test F control value,Phytophthora infestans; [12],L (50% or less control value)
same,Test H control value,[2]; [14],H (more than 50% control value)
"CCn1c(-c2c(F)cc(F)cc2F)c(C=O)cc(Cl)c1=O [Compound No. 289, 5-chloro-1-ethyl-6-oxo-2-(2,4,6-trifluorophenyl)-1,6-dihydropyridine-3-carbaldehyde]",pest or weed control at 250 µg/mL,[1],< 50%
same,pest or weed control at 250 µg/mL,Puccinia recondita; [5],> 50%
same,pest or weed control at 250 ppm,Plasmopara viticola,< 50%
same,pest or weed control at 250 µg/mL,Alternaia brassicicola; [7],> 50%
same,pest or weed control at 250 µg/mL,Magnaporthe grisea,< 50%
same,pest or weed control at 250 µg/mL,Botrytis cinerea,> 50%
same,pest or weed control at 250 µg/mL,Phytophthora infestans,< 50%
same,pest or weed control at 250 ppm,[2],> 50%
CCn1c(-c2c(F)cc(OC)cc2F)c(C(C)(O)C(C)(C)C)cc(Cl)c1=O (racemic) [compound 180],Test D control value class,[1]; Powdery mildew on barley,L (50% or less control value)
same,Test E control value class,Puccinia recondita; Brown rust on wheat,L (50% or less control value)
same,Test G control value class,Plasmopara viticola; 250 ppm spray,L (50% or less control value)
same,Test C control value class,Alternaia brassicicola; [3],H (more than 50% control value)
same,Test A control value class,Magnaporthe grisea; Blast on rice,H (more than 50% control value)
same,Test B control value class,Botrytis cinerea; Gray mold on tomato,H (more than 50% control value)
same,Test F control value class,Phytophthora infestans; Late blight on tomato,L (50% or less control value)
same,Test H control value class,[2]; 250 ppm spray,L (50% or less control value)
